Laboratory results reported in patent publication US20220071233A1, “IN VITRO INSECT MUSCLE AS A NUTRITION SOURCE” (Trustees of Tufts College, priority 2018, published 2022).
Entries after “also recorded” stand apart in the source; their conditions may differ.

Key:
[1] = tested on: DrAMPCs; test: Adhesion and growth on mushroom chitosan films (MTS assay, fluorescence microscopy); assay type: cell-based, Drosophila melanogaster; conditions: 0.1% gelatin solution coating
Description: Cell adhesion to tissue culture plastic and chitosan films was quantified via a MTS Assay from Promega (Madison, Wis.) (#G3582) by measuring absorbance after 2.5-hour incubation with the MTS reagent. Cell proliferation and viability were measured by fluorescence, Live/Dead kit (ThermoFisher, #L3224) stained image analysis or CyQuant proliferation assays (ThermoFisher, #C7026). For fluorescence measurements, GFP-expressing DrAMPCs were imaged on a fluorescence microscope over the course of a week using the automated multi-point capture feature. Fluorescence was quantified on Fiji software and normalized to the values determined at the first time-point. For Live/Dead stained image analysis, cells were stained following the kit protocols and imaged on a fluorescence microscope. The images were analyzed with Fiji to quantify the viability and total cell population over time. For CyQuant proliferation assays, cells were plated in 96-well plates for each time-point. At each time-point, media was blotted from the plates and plates were stored at −80° C. After all time-points were collected, plates were thawed to room temperature and stained with CyQuant working solution for 5 minutes. Microplate measurements were performed on a SpectraMax M2 reader from Molecular Devices (San Jose, Calif.). Cell populations were determined from a standard curve. […]

[2] = tested on: DrAMPCs; test: Surface coatings: myosin heavy chain expression and cell attachment (image fluorescence quantification); assay type: cell-based, Drosophila melanogaster; conditions: cultures on coated surface
[3] = tested on: DrAMPCs; test: Agitated suspension culture in shaker flasks (aggregation); assay type: cell-based, Drosophila melanogaster; conditions: 100 μg/mL dextran sulfate in EC405, shaker flasks
Description: It was noted that when static culture flasks became over-confluent, the cells continued to grow in three-dimensional aggregates or in suspension. […] The cells were then transitioned from static suspension culture to agitated suspension culture with the use of shaker flasks incubated at room temperature. In agitated suspension, the cells formed aggregates (FIG. 1G). […] After expansion in suspension culture and removal of dextran sulfate, the cells transitioned back to adherent monolayers and retained a myoblast-like morphology.
Drosophila melanogaster adult muscle progenitor-like cells (DrAMPCs) were acquired from Kerafast (Boston, Mass.) (#EF4006). The cell line was originally immortalized by the Persimmon Research Group at Harvard University, and was derived from primary embryo cultures in which Gal4 drives Ras^V12 and GFP expression. DrAMPCs were cultured in insect growth media composed of Schneider's Insect Medium from Sigma-Aldrich (St. Louis, Mo.) (#S0146) supplemented with 10% heat inactivated fetal bovine serum from ThermoFisher (Waltham, Mass.) (#16140) and 1% penicillin/streptomycin (ThermoFisher, #15140122). For serum-free growth media experiments, media consisted of Ex-Cell 405 Serum-Free Medium (Sigma-Aldrich, #14405C) and 1% penicillin/streptomycin. […]

[4] = tested on: DrAMPCs; test: CyQuant proliferation assay after hormone treatment; assay type: cell-based, Drosophila melanogaster
Description: Drosophila melanogaster adult muscle progenitor-like cells (DrAMPCs) were acquired from Kerafast (Boston, Mass.) (#EF4006). The cell line was originally immortalized by the Persimmon Research Group at Harvard University, and was derived from primary embryo cultures in which Gal4 drives Ras^V12 and GFP expression. DrAMPCs were cultured in insect growth media composed of Schneider's Insect Medium from Sigma-Aldrich (St. Louis, Mo.) (#S0146) supplemented with 10% heat inactivated fetal bovine serum from ThermoFisher (Waltham, Mass.) (#16140) and 1% penicillin/streptomycin (ThermoFisher, #15140122). For serum-free growth media experiments, media consisted of Ex-Cell 405 Serum-Free Medium (Sigma-Aldrich, #14405C) and 1% penicillin/streptomycin. For static culture, DrAMPCs were cultured in either plasma-treated flasks (ThermoFisher, #156499) or ultra-low attachment flasks (Corning, N.Y.) (#CLS3814) and incubated at 19° C. in a temperature-controlled incubator from VWR (Radnor, Pa.) (#89511-416). For suspension culture, DrAMPCs were cultured in shaker flasks (ThermoFisher, #4115-0250) on an orbital shaker set at 40 rpm at room temperature. When indicated, dextran sulfate (Sigma-Aldrich, #67578) was supplemented to serum-free media by dissolution and sterile filtration with 0.2 μm bottle top filters (ThermoFisher, #595-3320). For hormone treatment and differentiation experiments, DrAMPCs were cultured in insect growth media or serum-free media supplemented with methoprene (Sigma-Aldrich, #33375) and/or 20-hydroxyecdysone (Sigma-Aldrich, #H5142) which were dissolved in DMSO (Sigma-Aldrich, #D8418). DrAMPCs were seeded at 75,000 or 300,000 cells/cm^2 in 2D culture and 1,000,000 cells/sponge in 3D culture. […]
Cell adhesion to tissue culture plastic and chitosan films was quantified via a MTS Assay from Promega (Madison, Wis.) (#G3582) by measuring absorbance after 2.5-hour incubation with the MTS reagent. Cell proliferation and viability were measured by fluorescence, Live/Dead kit (ThermoFisher, #L3224) stained image analysis or CyQuant proliferation assays (ThermoFisher, #C7026). For fluorescence measurements, GFP-expressing DrAMPCs were imaged on a fluorescence microscope over the course of a week using the automated multi-point capture feature. Fluorescence was quantified on Fiji software and normalized to the values determined at the first time-point. For Live/Dead stained image analysis, cells were stained following the kit protocols and imaged on a fluorescence microscope. The images were analyzed with Fiji to quantify the viability and total cell population over time. […] Microplate measurements were performed on a SpectraMax M2 reader from Molecular Devices (San Jose, Calif.). Cell populations were determined from a standard curve.

[5] = tested on: DrAMPCs; test: Adhesion and differentiation on chitosan sponge scaffolds; assay type: cell-based, Drosophila melanogaster
Description: Mushroom chitosan of 100 kDa molecular weight from Chinova Bioworks (New Brunswick, Canada) was dissolved in 2% acetic acid in distilled water for 12 hours at room temperature on a stir plate. The chitosan solution was centrifuged at 16,880×g for 3 hours to remove undissolved particles and diluted in distilled water to the desired concentrations (1%, 2% and 4%). Concentrations were verified by drying small volumes at 60° C. for 2 hours and calculating dry weight/wet weight. To prepare films, the solution was cast on plastic and allowed to dry overnight. To prepare sponges, the solution was poured into PDMS molds with an aluminum sheet separating one side of the mold from a separate chamber. Liquid nitrogen was poured into the chamber opposite the chitosan solution and continually replenished until the entire solution had frozen across the temperature gradient. Samples were then lyophilized for 48 hours. Prior to sterilization and seeding, films and sponges were submerged in 1M sodium carbonate for 1 hour at room temperature and subsequently rinsed three times in distilled water for 20 minutes and soaked in distilled water overnight. For hydrated mechanical analysis, sectioned sponges were soaked in PBS prior to testing.
Sponges used for seeding were cylinders 6 mm in diameter and 1.5 mm thick. […]

[6] = tested on: Manduca sexta embryonic precursor cell (Ms-EPCs); test: Ms-EPC culture and differentiation; assay type: cell-based
[7] = tested on: DrAMPCs; test: Cell elongation and differentiation after hormone treatment (image analysis, immunostaining); assay type: cell-based, Drosophila melanogaster
Description: Drosophila melanogaster adult muscle progenitor-like cells (DrAMPCs) were acquired from Kerafast (Boston, Mass.) (#EF4006). The cell line was originally immortalized by the Persimmon Research Group at Harvard University, and was derived from primary embryo cultures in which Gal4 drives Ras^V12 and GFP expression. DrAMPCs were cultured in insect growth media composed of Schneider's Insect Medium from Sigma-Aldrich (St. Louis, Mo.) (#S0146) supplemented with 10% heat inactivated fetal bovine serum from ThermoFisher (Waltham, Mass.) (#16140) and 1% penicillin/streptomycin (ThermoFisher, #15140122). For serum-free growth media experiments, media consisted of Ex-Cell 405 Serum-Free Medium (Sigma-Aldrich, #14405C) and 1% penicillin/streptomycin. For static culture, DrAMPCs were cultured in either plasma-treated flasks (ThermoFisher, #156499) or ultra-low attachment flasks (Corning, N.Y.) (#CLS3814) and incubated at 19° C. in a temperature-controlled incubator from VWR (Radnor, Pa.) (#89511-416). For suspension culture, DrAMPCs were cultured in shaker flasks (ThermoFisher, #4115-0250) on an orbital shaker set at 40 rpm at room temperature. When indicated, dextran sulfate (Sigma-Aldrich, #67578) was supplemented to serum-free media by dissolution and sterile filtration with 0.2 μm bottle top filters (ThermoFisher, #595-3320). For hormone treatment and differentiation experiments, DrAMPCs were cultured in insect growth media or serum-free media supplemented with methoprene (Sigma-Aldrich, #33375) and/or 20-hydroxyecdysone (Sigma-Aldrich, #H5142) which were dissolved in DMSO (Sigma-Aldrich, #D8418). DrAMPCs were seeded at 75,000 or 300,000 cells/cm^2 in 2D culture and 1,000,000 cells/sponge in 3D culture. For mammalian controls, C2C12 cells from ATTC (Manassas, Va.) (#CRL-1772) were cultured in growth media composed of DMEM+Glutamax (ThermoFisher, #10566) supplemented with 10% heat inactivated fetal bovine serum and 1% penicillin/streptomycin. C2C12s were seeded at 10,000 cells/cm^2.
Cell viability was determined by a Live/Dead staining kit (ThermoFisher, #L3224). At time of assay, media was gently aspirated from the cell surface and cells were rinsed with phosphate buffered saline (PBS) (ThermoFisher, #14040133). Cells were stained with 2 μM calcein AM and 4 μM EthD-1 solution for 30 minutes at room temperature in the dark and imaged with a fluorescence microscope. For immunocytochemical staining, media was gently aspirated from cells and the cell surface was rinsed with PBS. Cells were fixed with 4% paraformaldehyde from Fisher Scientific (Hampton, N.H.) (#J61899AK) for 10 minutes and rinsed with PBS. Cells were then permeabilized with 0.5% Triton X-100 and rinsed with blocking buffer consisting of phosphate buffered saline, 5% fetal bovine serum and 0.05% sodium azide. Cells were incubated in blocking buffer for 15 minutes before addition of primary antibody, then incubated at 4° C. overnight. Cells were rinsed and incubated with fresh blocking buffer for 15 minutes before addition of secondary antibody, then incubated in the dark on ice for 1 hour. Again, cells were rinsed and incubated with fresh blocking buffer for 15 minutes before counterstaining and mounting with DAPI mounting medium from Abcam (Cambridge, UK) (#ab104139). Detailed antibody information is available in Table 5. Fluorescence imaging was performed on a Keyence microscope (Osaka, Japan) (#BZ-X700). Confocal imaging was performed on a TCS SP8 microscope from Leica Microsystems (Wetzlar, Germany).

[8] = average adult; cited from earlier work
[9] = tested on: DrAMPCs; test: Potassium induced contraction; assay type: cell-based, Drosophila melanogaster
Description: Cells were differentiated for 5 days before the experiment. High K+ concentration media was produced by dissolving KCl in growth media at the indicated concentration. Cells were imaged on a Phase Contrast microscope before growth media was aspirated and replaced with 600 mM K+ media. Cells were imaged over a duration of 15 minutes.

[10] = both serum-supplemented and serum-free cultures

Compound: gelatin
- cell adhesion and growth on gelatin-coated chitosan films [1]: did not increase cell adhesion to chitosan films; also recorded: grow in aggregates and were detached from the center of the well during the PBS rinse
- cell adhesion to gelatin coated tissue culture plastic [1]: improve cell adhesion

Compound: laminin
- cell attachment [2]: do not increase cell attachment
- expression of myosin heavy chain in differentiated DrAMPCs [2]: may increase

Compound: dextran sulfate
- cell aggregation in agitated suspension [3]: sufficient to reduce aggregation and promote a single cell suspension
- cell aggregation in agitated suspension ([3]; listed as Dextran sulfate): sufficient to reduce cell aggregation

Compound: CC(C)(O)CC[C@@H](O)[C@](C)(O)[C@H]1CC[C@@]2(O)C3=CC(=O)[C@@H]4C[C@@H](O)[C@@H](O)C[C@]4(C)[C@H]3CC[C@]12C [20-hydroxyecdysone]
- growth rates versus control groups ([4]; 0, 500 or 1000 ng/mL 20-HE): did not significantly differ from control groups
- generation of myosin heavy chain-expressing cells ([5]; on plastic and chitosan scaffolds): myosin heavy chain-expressing cells could be generated (albeit at low efficiency)
- fraction of cells on chitosan scaffolds differentiated ([5]; treated with 20-hydroxyecdysone): < 1%
- differentiation of primary Ms-EPC cells ([6]; differentiated with 20-hydroxyecdysone): multinucleated, striated and express myosin heavy chain
- concentration able to trigger cell elongation ([7]; as low as): 40 ng/mL
- differentiation [7, 10]: triggered differentiation
- differentiation of EC405 adapted cells ([7]; small fraction of cells, 1 μg/mL 20-HE for 5 days): differentiate and form long, multinucleated myotubes that express myosin heavy chain

Compound: poly-lysine
- cell morphology of Ms-EPCs ([6]; poly-lysine coated plastic): more cell elongation, perhaps differentiation

Compound: Concanavalin A
- cell attachment [2]: do not increase cell attachment
- expression of myosin heavy chain in differentiated DrAMPCs [2]: may increase

Compound: COC(C)(C)CCC[C@H](C)C/C=C/C(C)=C/C(=O)OC(C)C (racemic) [methoprene]
- comparison of treatment levels on proliferation ([4]; 500 ng/mL vs 1,000 ng/mL): the 500 ng/mL treatment level had a larger effect than the 1,000 ng/mL treatment
- proliferation versus control groups ([4]; 500 or 1,000 ng/mL, day 1 and 5): higher proliferation than control groups
- proliferation [4, 10]: increased proliferation
- recommended exposure [8]: 0.3750 mg/day
- average cell length less than control cells ([7]; 500 ng/mL): 8 μm
- cell elongation (preliminary sign of differentiation) ([7]; JH treatment): inhibited cell elongation

Compound: [Cl-].[K+] [K^+, KCl]
- cell viability after potassium treatment [9]: 95%
- cell contraction ([9]; 300 mM K+): did not contract
- cell contraction ([9]; 600 mM K+): did contract
- cell fractional shortening, myoblasts (elongated cells) ([9]; 600 mM K+, image analysis, n=12): 31.6%±14.8%
- cell fractional shortening, spherical proliferative precursor cells ([9]; 600 mM K+, image analysis, n=14): 1.6%±16.2%
